Data set [1] deals with Candida albicans (PG). The data set can be described thus: MIC and MFC for yeast and yeast-like strains. In kind it is cell-based. The procedure, abridged: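 Candida, Cryptococcus, Saccharomyces and Torulopsis strains tested by broth microdilution in Yeast Nitrogen Base with 0.15% asparagine and 1.0% glucose, buffered with 0.165 M MOPS; final inoculum about 5.0×10^4 CFU/ml from overnight (Cryptococcus 48-hour) Sabouraud cultures. MFC from spot-transfer of wells without visible growth onto Sabouraud agar.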

Data set [2] has as its system antibody-producer B lymphocytes (spleen). Nature of the data set: Test 1: primary antibody production (Jerne test) in spleen of SRBC immunized mice. Format: in vivo, mice (male B6 D2F1). As to the method: Test 1: Evaluation of the "in vitro-ex vivo" effect of repeated oral administrations of ST 722 on the primary antibody production (Jerne test) in the spleen of SRBC (Sheep Red Blood Cells) immunized mice.
Male B6 D2F1 mice (C. River) aged 8 weeks (6 animals each group) were utilized.
The substance (ST 722) was administered per os at the dose of 100 mg/kg/day from day -2 through day +2 (immunization at day 0). The animals were immunized by intraperitoneal route with a concentration of 1.0×10^8 cells/mouse in 0.2 ml of sterile saline.
Five days later, spleens to be submitted to teasing process were removed from the animals sacrificed by cervical dislocation. After standardization at 1.0×10^7 cells/ml. the splenocytes (0.1 ml) were mixed with warm agar-Hank's (2 ml) and 10% SRBC in PBS (0.2 ml) and seeded in Petri dishes (samples tested in triplicates) and incubated at 37° C. for 60 min.
After addition of complement (2 ml of guinea pig serum diluted 1:10 in Tris buffer), samples were further incubated at 37° C. for 30 min. To block the haemolysis reaction, the Petri dishes were cooled at 4° C. and the haemolysis plaques were counted.
The antibody response to SRBC is expressed as number of plaque forming cells (PFC) per 1.0×10^6 splenocytes as well as per spleen.

The subject of data set [3] is Aspergillus niger (ATCC 16404). Nature of the data set: MIC for filamentous fungi. Format: cell-based. Particulars: ATCC16404, read-out: Minimal Inhibitory Concentration (MIC). The procedure, abridged: (§1)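 Conidia, 72-h Sabouraud agar cultures; harvest in Sabouraud + Tween 80 (1 drop/10 ml); inoculum 5.0×10^4 CFU/ml. Method as for yeast-like fungi; MIC/MFC evaluated per earlier protocol.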

For data set [4], the system named is Fusarium sp. (ISS 1). Nature of the data set: MIC for filamentous fungi. Format: cell-based. Particulars: read-out: Minimal Inhibitory Concentration (MIC). The procedure, abridged:
as §1

Data set [5] deals with Penicillium sp. (1302). The data set can be described thus: MIC for filamentous fungi. Format: cell-based. Particulars: read-out: Minimal Inhibitory Concentration (MIC). The procedure, abridged: as §1
The subject of data set [6] is Aspergillus fumigatus (1/A). The data set can be described thus: MIC for filamentous fungi. Format: cell-based. The settings on record: read-out: Minimal Inhibitory Concentration (MIC). The procedure, abridged:
as §1

For data set [7], the system named is Aspergillus fumigatus (ATCC 28212). Nature of the data set: MIC for filamentous fungi. In kind it is cell-based. Particulars: ATCC28212, read-out: Minimal Inhibitory Concentration (MIC). The procedure, abridged: as §1
In data set [8] the test system is Mucor mucedo (ATCC 7941). The data set can be described thus: MIC for filamentous fungi. Format: cell-based. The settings on record: ATCC7941, read-out: Minimal Inhibitory Concentration (MIC). The procedure, abridged:
as §1

Data set [9] concerns Aspergillus fumigatus (C/1). Nature of the data set: MIC for filamentous fungi. In kind it is cell-based. The settings on record: read-out: Minimal Inhibitory Concentration (MIC). The procedure, abridged: as §1
Data set [10] deals with Aspergillus fumigatus (2/A). Nature of the data set: MIC for filamentous fungi. Format: cell-based. Particulars: read-out: Minimal Inhibitory Concentration (MIC). The procedure, abridged:
as §1

For data set [11], the system named is spleen, thymus and splenocytes. The data set can be described thus: Test 3: body, spleen and thymus weight and splenocyte concentration. In kind it is in vivo, mice (male B6 D2 F1). Particulars: 100 mg/kg/day oral, 5 consecutive days. As to the method:
Test 3: Evaluation of the effect of repeated oral administrations of ST 722 on the body, spleen and thymus weight, and on the splenocyte concentration in mice.
Male B6 D2 F1 mice (C. River) aged 10 weeks (5 animals each group) were orally treated with the substance ST 722 at the dose of 100 mg/kg/day for 5 consecutive days. Twenty-four hours after the last administration, the animals were sacrificed, the organs removed and weighed, and the splenocyte number determined.

Data set [12] relates to peritoneal macrophages. Nature of the data set: Test 4: peritoneal macrophage number in mice. Format: in vivo, mice (male B6 D2 F1). Particulars: 100 mg/kg/day oral, 5 consecutive days. On the procedure: Test 4: Evaluation of the effect of repeated oral administrations of ST 722 on the peritoneal macrophage number in mice.
Male B6 D2 F1 mice (C. River) aged 10 weeks (6 animals each group) were orally treated with the substance ST 722 at the dose of 100 mg/kg/day for 5 consecutive days. Twenty-four hours after the last administration, the animals were sacrificed, the peritoneal exudate cells (PEC) collected and the macrophage number determined.

A short description of data set [13]: Test 2: weight of murine lymphoid organs after repeated oral administrations. Particulars: 100 mg/kg/day oral, 7 consecutive days; x ± S.E. In kind it is in vivo, mice (male B6 D2 F1). As to the method:
Test 2: Evaluation of the effect of repeated oral administrations of ST 722 on the weight of murine lymphoid organs (spleen and thymus).
Male B6 D2 F1 mice (C. River) aged 7 weeks (7-8 animals each group) were orally treated with the substance ST 722 at the dose of 100 mg/kg/day for 7 consecutive days. Twenty-four hours after the last administration, the animals were sacrificed, the organs removed and weighed.

[14] abbreviates: 100 mg/kg/day per os, day -2 through day +2, x ± S.E.

The values that follow come from patent US5525627A, “Esters of acyl carnitines with long-chain aliphatic alcohols and pharmaceutical compositions containing same having antimycotic activity” (Sigma-Tau Industrie Farmaceutiche Riunite S.p.A., priority 1992, dated 1996).

As usually defined, the MFC is the smallest concentration meeting the test's criterion for killing the fungus. High values mean weaker fungicidal potency, low ones greater fungicidal potency.

In data set [1] (48 h, C. albicans PG), `CCCCCCCCCCCOC(=O)C[C@H](C[N+](C)(C)C)OC(=O)CC(C)C` [ST 722, isovaleryl-L-carnitine undecyl ester chloride] showed an MFC of 3.12 µg/mL. For the same compound, the MIC in data set [1] (48 hours, 35° C., read-out: Minimal Inhibitory Concentration (MIC)) amounted to 3.12 µg/mL; in data set [3], 12.5 µg/mL; in [4] it was 6.25 µg/mL; in data set [5] it was 12.5 µg/mL; in data set [6], 12.5 µg/mL; in [7] it was 12.5 µg/mL. Besides, the MIC was 50 µg/mL in data set [8], 12.5 µg/mL in [9] and 12.5 µg/mL in [10]. The “PFC/10^6 cells” value in [2] (setting [14]) is recorded as 261 ± 34 PFC/10^6 cells. The PFC/spleen in data set [2] (setting [14]) is 44440 ± 6087 PFC/spleen. Also, the “PFC number after antigenic challenge” value in data set [2] (5 consecutive days oral) is on record as “did not cause a statistically significant modification in PFC number”. Further, the “specific immunotoxic effects on the considered parameters” value in data set [11] is recorded as “lack of specific immunotoxic effects”. Moreover, the Body weight in data set [11] (x ± S.E.) was 26.50 ± 0.53 g; in [12] (± S.E., 6 animals), 28.13 ± 1.30 g; in [13], 22.74 ± 0.37 g. In addition, the Spleen weight in data set [11] (x ± S.E.) was 73.25 ± 3.84 mg; in data set [13], 77.88 ± 2.38 mg. Further, the Thymus weight in data set [11] (x ± S.E.) is listed as 38.80 ± 3.01 mg; in data set [13] it was 52.88 ± 3.20 mg. For the same compound, in [12], the “toxic effect in PEC macrophage population” value is given as “No toxic effect has been observed”. Besides, the “PEC Mo” value in data set [12] (6 pooled samples) worked out at 63%. Further, in [12] (versus control), the “increase in the peritoneal macrophages number” value is given as “about 60%”.
